Reference: ChEMBL document CHEMBL1136837, “Unified QSAR approach to antimicrobials. 4. Multi-target QSAR modeling and comparative multi-distance study of the giant components of antiviral drug-drug complex networks” (Bioorg Med Chem, 2009)

Legend:
Human rhinovirus sp. = assay: Antiviral activity against Human rhinovirus; assay type: functional, organism-based
Influenza A virus = assay: Antiviral activity against influenza H1N1 virus; assay type: functional, organism-based
Human alphaherpesvirus 3 = assay: Antiviral activity against Varicella zoster virus; assay type: functional, organism-based
Simplexvirus = assay: Antiviral activity against Herpes simplex virus; assay type: functional, organism-based
Human betaherpesvirus 5 = assay: Antiviral activity against Human cytomegalovirus; assay type: functional, organism-based; conditions: Human betaherpesvirus 5
Human alphaherpesvirus 2 = assay: Antiviral activity against Herpes simplex virus 2; assay type: functional, organism-based; conditions: Human alphaherpesvirus 2
Human alphaherpesvirus 1 = assay: Antiviral activity against Herpes simplex virus 1; assay type: functional, organism-based; conditions: Human alphaherpesvirus 1
Human gammaherpesvirus 4 = assay: Antiviral activity against Epstein-Barr virus; assay type: functional, organism-based
Respirovirus muris = assay: Antiviral activity against Sendai virus; assay type: functional, organism-based
[1] = system: Human parainfluenza virus 2; assay: Antiviral activity against Human parainfluenza virus 2; assay type: functional, organism-based; conditions: Human orthorubulavirus 2
Human betaherpesvirus 6 [2] = assay: Antiviral activity against Human herpesvirus 6A; assay type: functional, organism-based
Human betaherpesvirus 6 [3] = assay: Antiviral activity against Human herpesvirus 6B; assay type: functional, organism-based
Picornaviridae = assay: Antiviral activity against Human picornavirus; assay type: functional, organism-based
[4] = system: Human immunodeficiency virus 1; assay: Antiviral activity against HIV1; assay type: functional, organism-based
[5] = system: Moloney murine sarcoma virus; assay: Antiviral activity against Moloney sarcoma virus; assay type: functional, organism-based
[6] = system: Human immunodeficiency virus 2; assay: Antiviral activity against HIV2; assay type: functional, organism-based
Cowpox virus = assay: Antiviral activity against Cowpox virus; assay type: functional, organism-based
Vaccinia virus = assay: Antiviral activity against Vaccinia virus; assay type: functional, organism-based, Orthopoxvirus vaccinia
Monkeypox virus = assay: Antiviral activity against Monkeypox virus; assay type: functional, organism-based
Human adenovirus 2 = assay: Antiviral activity against Human adenovirus 2; assay type: functional, organism-based; conditions: Human mastadenovirus C
Influenza B virus = assay: Antiviral activity against influenza B virus; assay type: functional, organism-based
Influenza A virus H3N2 = assay: Antiviral activity against influenza H3N2 virus; assay type: functional, organism-based, H3N2 subtype
H2N2 subtype = assay: Antiviral activity against influenza H2N2 virus; assay type: functional, organism-based; conditions: Influenza A virus
H5N1 subtype = assay: Antiviral activity against influenza H5N1 virus; assay type: functional, organism-based; conditions: Influenza A virus
[7] = system: unidentified influenza virus; assay: Antiviral activity against influenza virus; assay type: functional, organism-based

Molecule `CCOC(=O)/C=C/[C@H](C[C@@H]1CCNC1=O)NC(=O)/C=C/c1ccc2c(c1)OCO2` has an IC50 (Human rhinovirus sp.) of 1810 nM.
Work on `CCCC(CCC)C(NC(C)=O)C1CC(C(=O)O)CC1NC(=N)N` (stereo unspecified) yielded an IC50 (Influenza A virus) of 720 nM.
Molecule `O=C(NCc1ccc(Cl)cc1)c1cnc2c(F)cccc2c1O` has an IC50 (Human alphaherpesvirus 3) of 1200 nM, an IC50 (Simplexvirus) of 13000 nM and an IC50 (Human betaherpesvirus 5) of 11000 nM.
In the case of `COc1nc(N)nc2c1ncn2/C=C1/CC1(CO)CO`, the IC50 (Human alphaherpesvirus 3) is reported as 3000 nM, the IC50 (Human alphaherpesvirus 2) is reported as 361000 nM and the IC50 (Human alphaherpesvirus 1) is reported as 361000 nM. For the same molecule, the IC50 (Human gammaherpesvirus 4) was 161000 nM.
Work on `CC(C)C(=O)N[C@H]1[C@H]([C@H](O)[C@H](O)CO)OC(C(=O)O)=C[C@@H]1N=[N+]=[N-]` yielded an IC50 (Respirovirus muris) of 100 nM and an IC50 [1] of 2200 nM.
For `O[C@@H]1[C@H](O)[C@H](O)CO[C@H]1n1c(Br)nc2cc(Cl)c(Cl)cc21`, the IC50 (Human betaherpesvirus 6 [2]) was 125000 nM and the IC50 (Human betaherpesvirus 6 [3]) was 95000 nM.
Work on `CNC(=O)/C=C(\c1ccc(OC)cc1)c1ccc2nc(NCC(=O)NC)c(-c3ccc(F)cc3)n2n1` yielded an IC50 (Picornaviridae) of 600 nM.
In the case of `Nc1nc(OCCOCP(=O)(O)O)cc(OCCOCP(=O)(O)O)n1`, the IC50 (Human alphaherpesvirus 3) is reported as 0.124 nM, the IC50 [4] is reported as 0.141 nM and the IC50 (Human alphaherpesvirus 2) is reported as 0.993 nM. The IC50 (Human alphaherpesvirus 1) was 0.596 nM, the IC50 [5] was 0.107 nM and the IC50 [6] was 0.199 nM.
`Nc1nc(OCCOCP(=O)(O)O)cc(=O)n1CCOCP(=O)(O)O` showed an IC50 (Human alphaherpesvirus 3) of 0.124 nM, an IC50 [4] of 0.248 nM and an IC50 (Human alphaherpesvirus 2) of 0.993 nM. It also gave an IC50 (Human alphaherpesvirus 1) of 0.993 nM, an IC50 [5] of 0.266 nM and an IC50 [6] of 0.248 nM.
Molecule `Nc1cc(SCCOCP(=O)(O)O)nc(N)n1` has an IC50 (Human alphaherpesvirus 3) of 0.0536 nM, an IC50 (Human alphaherpesvirus 2) of 0.286 nM and an IC50 (Human alphaherpesvirus 1) of 0.104 nM. The IC50 [5] was 607 nM.
Work on `CN(C)c1cc(OCCOCP(=O)(O)O)nc(N)n1` yielded an IC50 (Human alphaherpesvirus 3) of 0.171 nM, an IC50 [4] of 0.342 nM and an IC50 (Human alphaherpesvirus 2) of 1.37 nM. It also gave an IC50 (Human alphaherpesvirus 1) of 1.37 nM, an IC50 [5] of 0.455 nM and an IC50 [6] of 0.342 nM.
Work on `Nc1cc(=O)n(CCOCP(=O)(O)O)cn1` yielded an IC50 (Human alphaherpesvirus 3) of 0.201 nM, an IC50 [4] of 0.402 nM and an IC50 (Human alphaherpesvirus 2) of 1.61 nM. For the same molecule, the IC50 (Human alphaherpesvirus 1) was 1.61 nM, the IC50 [5] was 0.554 nM and the IC50 [6] was 0.402 nM.
For `Nc1cc(O)nc(SCCOCP(=O)(O)O)n1`, the IC50 (Human alphaherpesvirus 3) was 0.178 nM, the IC50 [4] was 0.356 nM and the IC50 (Human alphaherpesvirus 2) was 1.42 nM. For the same molecule, the IC50 (Human alphaherpesvirus 1) was 1.42 nM and the IC50 [5] was 0.256 nM.
`Nc1nc(NC2CC2)cc(OCCOCP(=O)(O)O)n1` gave an IC50 (Human alphaherpesvirus 3) of 0.164 nM, an IC50 [4] of 0.329 nM and an IC50 (Human alphaherpesvirus 2) of 0.263 nM. It also gave an IC50 (Human alphaherpesvirus 1) of 0.789 nM and an IC50 [5] of 0.132 nM.
`Nc1ncnc2c1c(Br)cn2COC(CO)CO` was tested, and the IC50 (Simplexvirus) was 1800 nM and the IC50 (Human betaherpesvirus 5) was 1500 nM.
In the case of `CCOC(=O)/C=C/[C@H](C[C@@H]1CCNC1=O)NC(=O)/C=C/c1cccc(Br)c1`, the IC50 (Human rhinovirus sp.) is reported as 1400 nM.
For `CCOC(=O)/C=C/[C@H](C[C@@H]1CCNC1=O)NC(=O)/C=C/c1ccc(C)c(Br)c1`, the IC50 (Human rhinovirus sp.) was 1290 nM.
With `CCOC(=O)/C=C/[C@H](C[C@@H]1CCNC1=O)NC(=O)c1ccc2ccccc2c1` the IC50 (Human rhinovirus sp.) was 150 nM.
Work on `Nc1ncnc2c1c(Br)cn2COCCO` yielded an IC50 (Simplexvirus) of 16000 nM.
Molecule `Nc1ccn(C[C@@H](CO)OCP(=O)(O)O)c(=O)n1` (stereo in doubt; form 1) [CIDOFOVIR] has an IC50 (Cowpox virus) of 48000 nM, an IC50 (Simplexvirus) of 3300 nM and an IC50 (Human betaherpesvirus 5) of 60 nM. For the same molecule, the IC50 (Vaccinia virus) was 23000 nM, the IC50 (Monkeypox virus) was 505000 nM and the IC50 (Human adenovirus 2) was 3100 nM.
`NC12CC3CC(CC(C3)C1)C2` [AMANTADINE] showed an IC50 (Influenza A virus) of 50000 nM, an IC50 (Influenza B virus) of 50000 nM and an IC50 (Influenza A virus H3N2) of 630 nM.
In the case of `Nc1ccn(C[C@H]2COP(=O)(O)CO2)c(=O)n1` [CYCLIC CIDOFOVIR], the IC50 (Cowpox virus) is reported as 51000 nM, the IC50 (Vaccinia virus; Orthopoxvirus vaccinia) is reported as 21000 nM and the IC50 (Monkeypox virus) is reported as 760000 nM.
`Nc1nc2c(ncn2/C=C2/CC2(CO)CO)c(=O)[nH]1` [FILOCICLOVIR] showed an IC50 (Human alphaherpesvirus 3) of 380000 nM, an IC50 (Human alphaherpesvirus 2) of 380000 nM and an IC50 (Human alphaherpesvirus 1) of 380000 nM. For the same molecule, the IC50 (Human gammaherpesvirus 4) was 45000 nM.
`O=C(O)P(=O)(O)O` [FOSCARNET] gave an IC50 (Human betaherpesvirus 5) of 7000 nM and an IC50 (Human adenovirus 2) of 500000 nM.
For `Nc1nc2c(ncn2COC(CO)CO)c(=O)[nH]1` [GANCICLOVIR], the IC50 (Vaccinia virus; Orthopoxvirus vaccinia) was 392000 nM and the IC50 (Human adenovirus 2) was 35000 nM.
For `Nc1ccn([C@@H]2CS[C@H](CO)O2)c(=O)n1` [LAMIVUDINE], the IC50 (Cowpox virus) was 436000 nM, the IC50 (Vaccinia virus; Orthopoxvirus vaccinia) was 436000 nM and the IC50 (Human adenovirus 2) was 100000 nM.
With `CC(C)Nc1nc2cc(Cl)c(Cl)cc2n1[C@H]1O[C@@H](CO)[C@H](O)[C@@H]1O` [MARIBAVIR] the IC50 (Human betaherpesvirus 6 [2]) was 125000 nM and the IC50 (Human betaherpesvirus 6 [3]) was 106000 nM.
`Cn1cnc2c(NCc3ccccc3)nc(NCCO)nc21` [OLOMOUCINE] showed an IC50 (Simplexvirus) of 100000 nM.
With `CCC(CC)O[C@@H]1C=C(C(=O)O)C[C@H](N)[C@H]1NC(C)=O` [OSELTAMIVIR CARBOXYLATE] the IC50 (Influenza A virus) was 3.9 nM, the IC50 (H2N2 subtype) was 0.17 nM and the IC50 (Influenza B virus) was 15 nM. The IC50 (Influenza A virus H3N2) was 0.6 nM.
`CCOC(=O)C1=C[C@@H](OC(CC)CC)[C@H](NC(C)=O)[C@@H](N)C1` [OSELTAMIVIR] showed an IC50 (H5N1 subtype) of 34000 nM, an IC50 (Influenza A virus) of 2500 nM and an IC50 [7] of 45000 nM. It also gave an IC50 (H2N2 subtype) of 1450 nM, an IC50 (Influenza B virus) of 2100 nM and an IC50 (Influenza A virus H3N2) of 260 nM.
`CCC(CC)[C@H](NC(C)=O)[C@@H]1[C@H](O)[C@@H](C(=O)O)C[C@H]1NC(=N)N` [PERAMIVIR ANHYDROUS] showed an IC50 (Influenza A virus) of 200 nM and an IC50 [7] of 8400 nM.
Work on `N#Cc1cn([C@@H]2O[C@H](CO)[C@@H](O)[C@H]2O)c2ncnc(N)c12` [TOYOCAMYCIN] yielded an IC50 (Simplexvirus) of 38000 nM.
In the case of `Nc1ccn([C@H]2CC[C@@H](CO)O2)c(=O)n1` [ZALCITABINE], the IC50 (Human adenovirus 2) is reported as 3300 nM.
With `CC(=O)N[C@H]1[C@H]([C@H](O)[C@H](O)CO)OC(C(=O)O)=C[C@@H]1NC(=N)N` [ZANAMIVIR] the IC50 (H5N1 subtype) was 220 nM, the IC50 (H2N2 subtype) was 760 nM and the IC50 (Influenza A virus H3N2) was 680 nM.
